The text below walks through data of ChEMBL document CHEMBL1649129, “Treatment with the fusion inhibitor enfuvirtide influences the appearance of mutations in the human immunodeficiency virus type 1 regulatory protein rev” (2009).

Common to all, as to type: functional
In test [1] the test system is Human immunodeficiency virus 1. Put plainly: Antiviral activity against HIV1 harboring wild type regulatory protein rev isolated from patient with viral infection assessed as change in viral RNA count after 48 weeks relative to control.
For test [2], the system named is Human immunodeficiency virus 1. Description: Antiviral activity against HIV1 harboring wild type regulatory protein rev isolated from patient with viral infection assessed as change in CD4 cell count after 48 weeks relative to control.
In test [3] the test system is Human immunodeficiency virus 1. Description: Antiviral activity against HIV1 harboring E57A mutant regulatory protein rev isolated from patient with viral infection assessed as change in viral RNA count after 48 weeks relative to control.
Test [4] relates to Human immunodeficiency virus 1. Put plainly: Antiviral activity against HIV1 harboring wild type regulatory protein rev isolated from patient with viral infection assessed as CD4 cell count after 48 weeks (reference value: 146/ul).
Test [5] deals with Human immunodeficiency virus 1. Put plainly: Antiviral activity against HIV1 harboring E57A mutant regulatory protein rev isolated from patient with viral infection assessed as change in CD4 cell count after 48 weeks relative to control.
Test [6] deals with Human immunodeficiency virus 1. Put plainly: Antiviral activity against HIV1 harboring E57A mutant regulatory protein rev isolated from patient with viral infection assessed as viral RNA count after 48 weeks (reference value: 4.9/ml).
For test [7], the system named is Human immunodeficiency virus 1. Description: Antiviral activity against HIV1 harboring E57A mutant regulatory protein rev isolated from patient with viral infection assessed as CD4 cell count after 48 weeks (reference value: 176/ul).
In test [8] the test system is Human immunodeficiency virus 1. Put plainly: Antiviral activity against HIV1 harboring wild type regulatory protein rev isolated from patient with viral infection assessed as viral RNA count after 48 weeks (reference value: 4.9/ml).

As for enfuvirtide, the “fold change (FC)” value in test [1] is -0.84; in test [2], 56; in test [3] it was 0.93; in test [5], -42. Further, the CD4 count in test [4] was 192 cells/µL; in test [7], 104 cells/µL. For the same substance, the Activity in test [6] turned out to be 5.4 log10 copies/mL; in test [8] it was 4.4 log10 copies/mL.
